Source: US8309596B2, “Kallikrein 7 modulators” (Novartis AG, priority 2007, dated 2012)
Marks after values point to notes of the source that are not given here.

Experiments:
[1] = system: swine; test: Anti-inflammatory activity in swine model of allergic contact dermatitis (ACD), DNFB; assay type: in vivo
Method: Eight days before the elicitation of the ACD, […] of 10% 2,4-dinitrofluorobenzene (DNFB, dissolved in DMSO/acetone/olive oil [1/5/3, v/v/v]) are applied epicutaneously in divided volumes onto the basis of both ears and onto both groins (100 μl/site) for sensitization. The challenge reactions are elicited with 15 μl of DNFB (1.0%) on contralateral test sites (each 7 cm^2 in size) of the shaved dorsolateral back. For treatment, the compound of example 11 (=Test compound 2) and the placebo (solvent only) are applied contralaterally to 2 test sites in each animal 0.5 and 6 hours after the challenge. The test sites are clinically examined 24 hours after the challenge when inflammation peaks. The changes are scored on a scale from 0 to 4 (Table XY), allowing a combined maximal score of 12 per designated site. Skin reddening is measured reflectometrically using a* values (see Table 3)

[2] = biological target: Kallikrein-7 (Homo sapiens, UniProt P49862); test: Kallikrein-7 inhibition, fluorescence-quenched substrate, determination of IC50 values; assay type: biochemical; details: pH 5.6, 1 hour preincubation, 0.2 nM protease, 2 μM substrate, room temperature
Sequence of Kallikrein-7 (P49862 30-253): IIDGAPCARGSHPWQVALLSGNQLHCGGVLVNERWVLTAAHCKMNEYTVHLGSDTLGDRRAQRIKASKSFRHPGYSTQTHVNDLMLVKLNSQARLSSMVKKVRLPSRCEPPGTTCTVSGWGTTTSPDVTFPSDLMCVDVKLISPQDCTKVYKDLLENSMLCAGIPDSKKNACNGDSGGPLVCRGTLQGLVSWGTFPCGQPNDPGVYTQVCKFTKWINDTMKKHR
Method: The fluorescence-quenched substrate Ac-Glu-Asp(EDANS)-Lys-Pro-Ile-Leu-Phe^Arg-Leu-Gly-Lys(DABCYL)-Glu-NH2 (where ^ indicates the scissile bond, identified by MS analysis) is purchased from Biosyntan (Berlin, Germany) and kept as a 5 mM stock solution in DMSO at −20° C. All other chemicals are of analytical grade.
Enzymatic reactions are conducted in 50 mM sodium citrate buffer at pH 5.6 containing 150 mM NaCl and 0.05% (w/v) CHAPS.
All protein and peptide containing solutions are handled in siliconized tubes (Life Systems Design, Merenschwand, Switzerland). […]
For fluorescence intensity (FI) measurements an Ultra Evolution reader (TECAN, Maennedorf, Switzerland) is used. The instrument is equipped with a combination of a 350 nm (20 nm bandwidth) and a 500 nm (25 nm bandwidth) bandpath filter for fluorescence excitation and emission acquisition, respectively. […]
For the determination of IC50 values the assay is performed at room temperature in 384-well plates. […] The protease concentration in final assay solution is 0.2 nM (according to the enzyme concentrations determined by the Bradford method). […] The effect of the compound on the enzymatic activity is obtained from the linear progress curves and determined from two readings, the first one taken directly after the addition of substrate and the second one after 1 hour. […]

[3] = system: hairless SKH1 mice; test: Test on recovery of skin barrier disruption in mice (TEWL); assay type: in vivo; details: 10 mM
Method: Method: Skin barrier disruption is achieved in groups of hairless SKH1 mice with repeated stripping of the skin with S-Sqame® skin sampling disks. The procedure is completed when transepidermal water loss (TEWL) achieved ≧[…]. TEWL is assessed with a Tewameter TM210 (Courage Khazaka, Cologne, Del.). Immediately after barrier disruption 30 μl of the compound of example 37(=Test compound 1) is applied at 10 mM concentration. Controls animals are treated similarly with the solvent (EtOH/propylene glycol, 3/7 (v/v)) alone. TEWL is measured before, immediately after, and at 3 hrs after barrier disruption. In each animal, the percentage recovery is calculated using the formula: (1−[TEWL at 3 hrs−base line TEWL]/[TEWL immediately after stripping−base line TEWL])×100%.

[4] = system: Crl:NMRI mice; test: Anti-inflammatory activity in murine model of irritant contact dermatitis (ICD), TPA-induced; assay type: in vivo; details: for % Inhibition inflammatory swelling [Mean ± SEM values]: 10 μl topically 30 minutes prior to TPA challenge, auricular weight 6 hours after challenge, n 24
Method: Method: Crl:NMRI mice are challenged with 10 μl 0.005% phorbol 12-myristat-13-acetate (TPA) on the inner surface of the right ear. The unchallenged left ears serve as normal controls and dermatitis is evaluated from the difference in auricular weight (taken as a measure of inflammatory swelling) 6 hours after the challenge. The animals are treated topically with 10 μl of the test compound 1 or the solvent 30 minutes prior to the challenge. The efficacy of the treatment is calculated as the percentage inhibition of inflammatory auricular swelling relative to animals treated with the vehicle alone.

C#Cc1ccc2cccc(CNC(=O)N3CCC[C@H]3C(=O)NCc3cccnc3)c2c1 [Example 11, (S)-Pyrrolidine-1,2-dicarboxylic acid 1-[(7-ethynyl-naphthalen-1-ylmethyl)-amide] 2-[(pyridin-3-ylmethyl)-amide]]
A* value (Mean, SD, n: 8), skin reddening measured reflectometrically ([1]; 1% solution applied 0.5 and 6 hours after challenge, 24 hours after challenge): 7.7 (1.6)
Clinical score (Mean, SD, n: 8) ([1]; 1% solution applied 0.5 and 6 hours after challenge, examined 24 hours after challenge, maximal score 12): 4.1 (1.3)
Inhibition vs placebo-treated sites, Clinical score ([1]; 1% solution, Mean, SD): 42.4 (11.1)
inhibition of clinical inflammatory changes ([1]; 1% solution, p<0.01): 42%

O=C(NCc1cccnc1)[C@@H]1[C@H]2C[C@H]2CN1C(=O)NCc1cccc2ccc(Cl)cc12 [Example 36, (1S,2S,5R)-3-aza-bicyclo[3.1.0]hexane-2,3-dicarboxylic acid 3-[(7-chloro-naphthalen-1-ylmethyl)-amide] 2-[(pyridin-3-ylmethyl)-amide]]
IC50 [2]: 3 nM

COc1ccc(CCNC(=O)[C@@H]2[C@H]3C[C@H]3CN2C(=O)NCc2cccc3ccc(Cl)cc23)cc1 [Example 37, (1S,2S,5R)-3-aza-bicycic[3.1.0]hexane-2,3-dicarboxylic acid 3-[(7-chloro-naphthalen-1-ylmethyl)-amide] 2-{[2-(4-methoxy-phenyl)-ethyl]-amide}]
% Recovery in barrier disruption Mean (SD values) ([3]; 30 μl applied immediately after barrier disruption, TEWL at 3 hrs, n: 8 or 12 animals per group): 76 (3.3)*** %
acceleration of barrier repair compared to repair in mice treated with the solvent alone ([3]; single application, p<0.001): 65-76%
% Inhibition inflammatory swelling [Mean ± SEM values] ([4]; 10 mM): 41 ± 5.3***^24%
inhibition of inflammatory swelling ([4]; 20 mM concentrations as printed in text): 54-73%
% Inhibition inflammatory swelling [Mean ± SEM values] ([4]; 30 mM): 73 ± 7.0***^24%
